{"source": "ChEMBL document CHEMBL1201862", "about": "“PubChem BioAssay data set” (2004)", "key": {"[1]": {"molecular_target": "Lysine-specific demethylase 4C (Homo sapiens, UniProt Q9H3R0)", "sequence (Q9H3R0 whole entry)": "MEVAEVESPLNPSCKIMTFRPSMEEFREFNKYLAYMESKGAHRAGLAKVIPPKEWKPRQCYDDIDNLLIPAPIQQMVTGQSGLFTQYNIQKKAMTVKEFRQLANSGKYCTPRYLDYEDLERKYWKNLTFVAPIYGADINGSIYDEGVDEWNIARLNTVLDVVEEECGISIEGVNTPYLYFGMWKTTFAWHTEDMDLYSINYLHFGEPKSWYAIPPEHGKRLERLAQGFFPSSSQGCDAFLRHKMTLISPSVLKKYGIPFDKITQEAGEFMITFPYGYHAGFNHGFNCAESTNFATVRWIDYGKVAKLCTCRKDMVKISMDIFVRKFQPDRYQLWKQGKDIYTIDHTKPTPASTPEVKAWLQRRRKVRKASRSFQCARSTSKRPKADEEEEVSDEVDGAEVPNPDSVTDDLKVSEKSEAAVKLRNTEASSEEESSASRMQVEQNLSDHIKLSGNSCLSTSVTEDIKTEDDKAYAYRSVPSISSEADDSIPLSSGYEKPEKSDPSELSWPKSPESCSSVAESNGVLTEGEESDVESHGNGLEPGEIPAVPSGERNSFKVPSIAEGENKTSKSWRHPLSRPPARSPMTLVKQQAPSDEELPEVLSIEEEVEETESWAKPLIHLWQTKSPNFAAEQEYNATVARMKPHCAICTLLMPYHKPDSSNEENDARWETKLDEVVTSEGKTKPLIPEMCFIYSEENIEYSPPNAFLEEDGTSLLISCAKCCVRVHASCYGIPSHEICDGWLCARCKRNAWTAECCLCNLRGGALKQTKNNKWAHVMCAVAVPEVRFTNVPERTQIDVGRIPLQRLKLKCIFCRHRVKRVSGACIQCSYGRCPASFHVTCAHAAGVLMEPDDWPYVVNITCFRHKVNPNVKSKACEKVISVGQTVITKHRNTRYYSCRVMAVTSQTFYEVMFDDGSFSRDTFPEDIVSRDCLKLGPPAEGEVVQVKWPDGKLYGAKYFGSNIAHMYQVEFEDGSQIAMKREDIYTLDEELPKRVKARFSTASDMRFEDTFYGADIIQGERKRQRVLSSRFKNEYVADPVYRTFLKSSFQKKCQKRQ", "assay": "GASC-1 (JMJD2C) histone demethylase inhibitors, dose response, biochemical, DELFIA europium, cherry-picked samples (AID 488835)", "type": "functional"}, "[2]": {"molecular_target": "T1, Dual specificity protein phosphatase 6 (Rattus norvegicus, UniProt Q64346)", "T1 sequence (Q64346 whole entry)": "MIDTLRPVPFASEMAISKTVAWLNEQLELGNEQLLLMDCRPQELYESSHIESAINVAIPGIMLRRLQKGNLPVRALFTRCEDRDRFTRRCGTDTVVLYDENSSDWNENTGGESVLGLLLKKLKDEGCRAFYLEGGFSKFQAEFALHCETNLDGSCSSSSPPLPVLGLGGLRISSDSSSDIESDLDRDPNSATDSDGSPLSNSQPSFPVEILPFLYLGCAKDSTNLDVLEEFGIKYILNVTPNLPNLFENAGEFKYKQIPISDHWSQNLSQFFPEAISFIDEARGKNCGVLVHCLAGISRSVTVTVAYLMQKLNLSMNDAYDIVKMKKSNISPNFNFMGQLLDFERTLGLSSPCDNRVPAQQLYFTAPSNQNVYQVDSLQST", "assay": "MKP-3 phosphatase inhibitors, primary screen, biochemical, rat enzyme, in vitro (AID 425)"}, "[3]": {"molecular_target": "T2, Dual specificity protein phosphatase 3 (Homo sapiens, UniProt P51452)", "T2 sequence (P51452 whole entry)": "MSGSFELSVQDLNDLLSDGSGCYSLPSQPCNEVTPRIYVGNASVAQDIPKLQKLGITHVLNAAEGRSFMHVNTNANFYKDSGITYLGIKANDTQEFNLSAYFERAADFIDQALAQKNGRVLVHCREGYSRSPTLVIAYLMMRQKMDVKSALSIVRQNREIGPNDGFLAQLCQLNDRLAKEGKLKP", "assay": "VHR1 phosphatase inhibitors, biochemical (AID 1878)"}, "[4]": {"molecular_target": "Guanyl-specific ribonuclease T1 (Aspergillus oryzae (strain ATCC 42149 / RIB 40), UniProt P00651)", "sequence (P00651 whole entry)": "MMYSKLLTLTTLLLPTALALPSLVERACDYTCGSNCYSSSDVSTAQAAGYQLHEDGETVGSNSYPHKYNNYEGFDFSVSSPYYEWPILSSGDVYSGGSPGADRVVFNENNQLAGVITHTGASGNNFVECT", "assay": "RNase T1 inhibitors, dose response, counter-screen for TPT1 inhibitor project, biochemical, fluorescence polarization, 1536-well (AID 2167)"}, "[5]": {"molecular_target": "Lysine-specific demethylase 4A (Homo sapiens, UniProt O75164)", "sequence (O75164 whole entry)": "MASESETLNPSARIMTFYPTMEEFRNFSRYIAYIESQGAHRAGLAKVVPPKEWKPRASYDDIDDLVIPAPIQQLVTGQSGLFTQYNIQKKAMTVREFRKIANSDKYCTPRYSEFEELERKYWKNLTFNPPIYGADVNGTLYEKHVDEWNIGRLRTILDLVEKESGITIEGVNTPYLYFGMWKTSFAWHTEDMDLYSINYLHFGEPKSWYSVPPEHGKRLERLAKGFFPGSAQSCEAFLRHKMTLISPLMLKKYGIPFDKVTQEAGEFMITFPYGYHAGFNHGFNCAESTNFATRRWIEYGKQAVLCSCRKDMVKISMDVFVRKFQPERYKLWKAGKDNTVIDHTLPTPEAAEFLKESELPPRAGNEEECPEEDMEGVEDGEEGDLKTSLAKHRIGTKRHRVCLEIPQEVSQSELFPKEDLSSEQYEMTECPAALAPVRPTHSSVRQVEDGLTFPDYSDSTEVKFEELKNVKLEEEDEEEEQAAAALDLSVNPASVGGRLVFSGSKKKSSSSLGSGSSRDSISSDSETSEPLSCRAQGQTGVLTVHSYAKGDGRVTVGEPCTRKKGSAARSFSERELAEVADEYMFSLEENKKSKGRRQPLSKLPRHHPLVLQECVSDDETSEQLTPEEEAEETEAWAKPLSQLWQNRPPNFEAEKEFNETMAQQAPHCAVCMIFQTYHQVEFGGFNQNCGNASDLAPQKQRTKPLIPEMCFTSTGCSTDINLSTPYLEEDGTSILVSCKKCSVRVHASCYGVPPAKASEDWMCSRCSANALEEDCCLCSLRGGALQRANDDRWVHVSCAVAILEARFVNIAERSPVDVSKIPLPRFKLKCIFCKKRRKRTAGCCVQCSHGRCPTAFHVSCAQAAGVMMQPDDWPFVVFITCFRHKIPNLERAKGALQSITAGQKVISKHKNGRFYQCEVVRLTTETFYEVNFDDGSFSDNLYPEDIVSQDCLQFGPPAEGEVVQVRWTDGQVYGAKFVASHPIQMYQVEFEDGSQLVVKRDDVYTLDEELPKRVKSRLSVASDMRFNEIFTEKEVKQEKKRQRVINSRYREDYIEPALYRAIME", "assay": "JMJD2A histone demethylase inhibitors, dose response, selectivity assay for GASC-1 inhibitor project, biochemical, DELFIA europium, cherry-picked samples (AID 488840)"}, "Hexokinase HKDC1": {"molecular_target": "T3, Hexokinase HKDC1 (Homo sapiens, UniProt Q2TB90)", "T3 sequence (Q2TB90 whole entry)": "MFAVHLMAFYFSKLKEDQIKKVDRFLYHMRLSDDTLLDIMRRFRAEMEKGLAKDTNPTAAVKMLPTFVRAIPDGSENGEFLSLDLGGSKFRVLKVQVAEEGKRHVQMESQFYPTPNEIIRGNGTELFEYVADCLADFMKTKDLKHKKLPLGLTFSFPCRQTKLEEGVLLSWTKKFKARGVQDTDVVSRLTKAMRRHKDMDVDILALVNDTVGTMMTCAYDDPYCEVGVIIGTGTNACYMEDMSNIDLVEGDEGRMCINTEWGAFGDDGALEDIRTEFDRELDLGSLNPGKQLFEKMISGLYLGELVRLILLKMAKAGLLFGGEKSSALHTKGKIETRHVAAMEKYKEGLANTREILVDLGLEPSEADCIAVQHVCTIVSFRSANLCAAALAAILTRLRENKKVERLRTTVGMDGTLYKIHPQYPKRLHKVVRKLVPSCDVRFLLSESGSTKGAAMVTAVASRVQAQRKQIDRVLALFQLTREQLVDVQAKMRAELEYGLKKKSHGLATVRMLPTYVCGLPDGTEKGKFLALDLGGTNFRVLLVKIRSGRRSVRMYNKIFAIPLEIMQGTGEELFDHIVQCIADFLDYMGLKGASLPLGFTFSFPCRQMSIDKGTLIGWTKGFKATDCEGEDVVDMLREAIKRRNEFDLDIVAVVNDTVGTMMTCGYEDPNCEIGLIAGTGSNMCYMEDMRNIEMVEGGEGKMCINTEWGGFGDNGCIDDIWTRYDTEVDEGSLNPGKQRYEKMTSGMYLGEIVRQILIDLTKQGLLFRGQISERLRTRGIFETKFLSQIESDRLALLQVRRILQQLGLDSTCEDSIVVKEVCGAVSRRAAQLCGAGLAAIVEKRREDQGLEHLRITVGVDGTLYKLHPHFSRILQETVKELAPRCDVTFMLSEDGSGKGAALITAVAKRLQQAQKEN", "assay": "HKDC1 hexokinase inhibitors, dose response, biochemical, W721R variant (AID 504729)", "type": "functional"}, "[6]": {"molecular_target": "T2, Dual specificity protein phosphatase 3", "assay": "VHR1 phosphatase inhibitors, primary screen, biochemical, absorbance, uHTS (AID 1654)"}, "[7]": {"molecular_target": "Likely tRNA 2'-phosphotransferase (Candida albicans (strain SC5314 / ATCC MYA-2876) (Yeast), UniProt Q5A7N4)", "sequence (Q5A7N4 whole entry)": "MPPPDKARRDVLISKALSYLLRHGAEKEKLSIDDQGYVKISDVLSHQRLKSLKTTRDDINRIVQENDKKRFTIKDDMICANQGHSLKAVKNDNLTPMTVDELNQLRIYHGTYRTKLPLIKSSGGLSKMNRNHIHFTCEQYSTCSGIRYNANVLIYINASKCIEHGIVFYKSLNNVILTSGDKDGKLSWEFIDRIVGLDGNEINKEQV", "assay": "TPT1 tRNA phosphotransferase inhibitors, dose response, biochemical, fluorescence polarization (AID 2160)"}, "HEK293 [8]": {"tested_on": "HEK293", "assay": "cells", "conditions": "Homo sapiens"}, "HEK293 [9]": {"tested_on": "HEK293", "assay": "cells", "conditions": "Homo sapiens", "remark": "listed apart in the source"}, "[10]": {"molecular_target": "T2, Dual specificity protein phosphatase 3", "assay": "SAR VHR1 absorbance Assay for In Vitro dose response studies. [Related pubchem assays (depositor defined):AID1654, AID1661, AID1878, AID1992, AID2004]"}, "[11]": {"molecular_target": "T1, Dual specificity protein phosphatase 6", "type": "functional"}, "[12]": {"molecular_target": "T4, Tyrosine-protein phosphatase non-receptor type 7 (Homo sapiens, UniProt P35236)", "T4 sequence (P35236 whole entry)": "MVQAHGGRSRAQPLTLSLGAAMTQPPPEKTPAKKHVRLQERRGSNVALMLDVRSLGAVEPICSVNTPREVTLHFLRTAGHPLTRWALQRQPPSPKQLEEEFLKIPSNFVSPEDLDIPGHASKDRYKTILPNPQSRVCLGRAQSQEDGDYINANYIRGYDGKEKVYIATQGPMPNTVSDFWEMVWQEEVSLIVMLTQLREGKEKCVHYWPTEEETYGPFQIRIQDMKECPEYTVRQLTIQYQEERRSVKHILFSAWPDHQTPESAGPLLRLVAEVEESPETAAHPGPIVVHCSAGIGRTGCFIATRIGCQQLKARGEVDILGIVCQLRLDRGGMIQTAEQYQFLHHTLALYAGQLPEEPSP", "assay": "redox-dependent HePTP inhibition, mechanism study, biochemical, fluorescence (AID 2068)", "type": "functional"}, "[13]": {"molecular_target": "Tyrosine-protein phosphatase non-receptor type 11 (Homo sapiens, UniProt Q06124)", "sequence (Q06124 whole entry)": "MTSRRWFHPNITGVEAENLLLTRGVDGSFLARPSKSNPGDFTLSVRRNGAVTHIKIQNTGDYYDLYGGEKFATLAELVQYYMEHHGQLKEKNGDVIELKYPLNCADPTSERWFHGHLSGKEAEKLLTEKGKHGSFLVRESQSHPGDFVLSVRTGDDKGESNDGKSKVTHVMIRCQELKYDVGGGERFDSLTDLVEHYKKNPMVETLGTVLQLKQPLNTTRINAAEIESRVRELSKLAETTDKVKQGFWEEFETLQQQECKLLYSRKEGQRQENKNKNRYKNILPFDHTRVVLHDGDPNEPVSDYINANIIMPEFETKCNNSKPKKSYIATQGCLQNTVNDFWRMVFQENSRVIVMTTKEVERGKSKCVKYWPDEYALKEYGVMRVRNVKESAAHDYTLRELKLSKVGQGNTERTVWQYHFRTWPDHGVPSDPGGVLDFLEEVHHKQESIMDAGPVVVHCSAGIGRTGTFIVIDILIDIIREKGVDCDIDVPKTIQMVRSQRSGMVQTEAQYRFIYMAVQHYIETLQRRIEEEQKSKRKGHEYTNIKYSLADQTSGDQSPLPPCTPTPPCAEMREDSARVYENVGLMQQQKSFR", "assay": "SHP2 phosphatase inhibition, dose response, selectivity assay for STEP inhibitor project, biochemical (AID 602367)", "type": "functional", "conditions": "read-out: IC50_Mean"}, "[14]": {"molecular_target": "T2, Dual specificity protein phosphatase 3", "assay": "VHR phosphatase inhibition, dose response, selectivity assay for STEP inhibitor project, biochemical (AID 602374)", "type": "functional", "conditions": "read-out: IC50_Mean"}, "[15]": {"molecular_target": "T2, Dual specificity protein phosphatase 3", "assay": "SAR VHR1 Fluorescent Assay for In Vitro dose response studies. [Related pubchem assays (depositor defined):AID1654, AID1661, AID1878, AID1992, AID2004, AID2070, AID2085]", "type": "functional"}, "[16]": {"molecular_target": "Tyrosine-protein phosphatase non-receptor type 5 (Homo sapiens, UniProt P54829)", "sequence (P54829 whole entry)": "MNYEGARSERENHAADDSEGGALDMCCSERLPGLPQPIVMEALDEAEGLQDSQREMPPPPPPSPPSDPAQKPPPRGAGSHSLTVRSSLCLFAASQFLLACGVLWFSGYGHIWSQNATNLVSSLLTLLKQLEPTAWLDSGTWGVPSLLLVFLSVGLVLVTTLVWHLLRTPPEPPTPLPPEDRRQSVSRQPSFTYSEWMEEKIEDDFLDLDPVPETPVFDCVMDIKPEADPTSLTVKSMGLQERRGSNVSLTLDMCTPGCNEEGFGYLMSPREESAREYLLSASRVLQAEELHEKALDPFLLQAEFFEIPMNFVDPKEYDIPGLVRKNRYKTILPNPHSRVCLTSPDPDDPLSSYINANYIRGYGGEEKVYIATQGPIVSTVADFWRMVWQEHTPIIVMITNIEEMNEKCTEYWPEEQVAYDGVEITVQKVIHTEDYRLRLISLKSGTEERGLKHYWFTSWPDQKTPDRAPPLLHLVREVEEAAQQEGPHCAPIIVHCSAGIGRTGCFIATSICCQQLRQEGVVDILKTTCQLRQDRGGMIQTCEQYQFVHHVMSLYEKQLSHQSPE", "assay": "STEP phosphatase inhibitors, confirmation, biochemical, fluorescence intensity, uHTS hits (AID 602372)", "type": "functional", "conditions": "read-out: IC50_Mean"}, "[17]": {"assay": "Luminescence Cell-Based Dose Retest to Confirm Inhibitors of Cancer Stem Cells. [Related pubchem assays (depositor defined):AID2717, AID2721]", "type": "functional", "conditions": "Homo sapiens"}, "[18]": {"assay": "cytotoxicity in HMLE control line with eGFP shRNA, dose response, counter-screen for HMLE_sh_ECad selective toxicity project, cell-based, HMLE_sh_eGFP, luminescence (AID 463074);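 also: HMLE human mammary epithelial cells expressing control shRNA against eGFP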", "type": "functional, Homo sapiens"}, "[19]": {"assay": "growth suppression of PTEN-null colon cells, dose response, cell-based, HCT116 PTEN knockout (AID 1047);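 also: cells exposed to compound for 60 hours before readout; potency for loss of cell viability measured by luminescence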", "type": "functional"}, "[20]": {"assay": "growth suppression of beta-catenin-knockout colon cells, dose response, cell-based, HCT116, human colon tumor (AID 1045);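 also: cells exposed to compound for 60 hours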", "type": "functional"}}, "note": "The source made the active and inactive calls.", "data": [{"smiles": "COc1ccc(OC)c(N2C(=O)/C(=C/c3ccco3)C(=O)NC2=S)c1", "values": [{"measurement": "AC50", "setting": "[1]", "value": "4.67 µM (active)"}, {"measurement": "IC50", "setting": "[2]", "value": "< 1.23 µM (not active)"}, {"measurement": "IC50", "setting": "[3]", "value": "< 1.23 µM (inactive)"}, {"measurement": "IC50", "setting": "[4]", "value": "> 55.7 µM (not active)"}, {"measurement": "AC50", "setting": "[5]", "value": "16.2 µM (active)"}, {"measurement": "IC50", "setting": "Hexokinase HKDC1", "value": "2.57 µM (active)"}, {"measurement": "IC50", "setting": "[6]", "value": "< 1.23 µM (inactive)"}, {"measurement": "IC50", "setting": "[7]", "value": "8.01 µM (active)"}]}, {"smiles": "Brc1ccc2c(c1)-c1ccccc1C1=NCCN12", "values": [{"measurement": "EC50", "setting": "HEK293 [8]", "value": "> 59.8 µM (inactive)"}, {"measurement": "EC50", "setting": "HEK293 [9]", "value": "> 59.8 µM (inactive)"}]}, {"smiles": "S=C(c1cn(CCOc2ccccc2)c2ccccc12)N1CCCC1", "values": [{"measurement": "IC50", "setting": "[10]", "value": "0.727 µM (active)"}, {"measurement": "IC50", "setting": "[2]", "value": "> 158 µM (not active)"}, {"measurement": "IC50", "setting": "[11]", "value": "> 99 µM (inactive)"}, {"measurement": "IC50", "setting": "[12]", "value": "0.129 µM (active)"}, {"measurement": "IC50", "setting": "[3]", "value": "8.8 µM (active)"}, {"measurement": "IC50", "setting": "[13]", "value": "5.47 µM (active)"}, {"measurement": "IC50", "setting": "[14]", "value": "1.27 µM (active)"}, {"measurement": "IC50", "setting": "[6]", "value": "3.97 µM (active)"}, {"measurement": "IC50", "setting": "[15]", "value": "> 99 µM (inactive)"}, {"measurement": "IC50", "setting": "[16]", "value": "17 µM (active)"}]}, {"smiles": "O=C(N/N=C/c1cn(-c2cccs2)nc1-c1ccccc1)c1ccccc1Br", "values": [{"measurement": "AC50", "setting": "[17]", "value": "3.75 µM (active)"}, {"measurement": "AC50", "setting": "[18]", "value": "23 µM (active)"}, {"measurement": "EC50", "setting": "[19]", "value": "30.2 µM (active)"}, {"measurement": "EC50", "setting": "[20]", "value": "31 µM (active)"}]}]}
